Source: patent EP0194571A1, “Heterocyclic disulfides, process for their preparation and pharmaceutical preparations containing them” (HOECHST AKTIENGESELLSCHAFT, priority 1985, dated 1986)

Columns and labels:
[1] = tested on: Maus-Peritonealmakrophagen; assay: Pinocytosis of colloidal gold (198Au) by peritoneal macrophages from treated mice; type: in vivo, NMRI-Mäuse; conditions: uptake of colloidal 198Au
Experimental: Hier wurde der Einfluß der nach Ausführungsbeispiel 8 erhaltenen Prüfsubstanz auf die Stimulation von Peritonealmakrophagen bei 6- 8 Wochen alten NMRI-Mäusen untersucht. Mäuseweibchen erhielten auf parenteralem oder oralem Wege die Prüfsubstanz in einer Dosis von 25 mg/kg, 50 mg/kg, 100 mg/kg und 200 mg/kg. Der Kontrollgruppe wurde gepufferte Kochsalzlösung verabreicht. Drei Tage nach den Injektionen wurden die Mäuse getötet, und es wurden die Peritonealmakrophagen der Tiere auf ihren Aktivierungszustand hin untersucht. Als Maß der Makrophagenaktivierung wurde zum einen die Sekretion der lyosomalen Enzyme (ß-Galactosidase, ß-Glucuronidase, N-Acetyl-ß-D-Glucosaminidase) bestimmt. Auf der anderen Seite konnte in vergleichbaren Makrophagenkulturen die Pinozytose durch die Aufnahme von kolloidalem Gold (^19^8Au) - wie sie dem Fachmann bekannt ist - untersucht werden. Die Höhe des oxidativen Stoffwechsels bei Makrophagen gilt als ein weiteres Maß für ihren Aktivierungszustand. Gemessen wird diese Aktivität unter Zuhilfenahme des Biolumaten durch Bestimmung der Chemolumineszenz.
Zu diesem Zweck wurden entweder in Petrischalen von 30 mm Durchmesser 3 x 10^6 Makrophagen mit 1 ml TC 199-Kulturmedium oder aber 10^6 Makrophagen mit 100 µl in Rundbogen-Polyäthylen-Röhrchen (zur Bestimmung der Chemolumineszenz) bei 5 % G02 und 37°C kultiviert.
Nach einstündiger Bebrütung wurden die Kulturen gewaschen, um schwimmende Zellen zu entfernen. Die Chemolumineszenz (Röhrchenkultur) wurde dann direkt bestimmt, während die Petrischalen erneut 24 Stunden bei 37°C bebrütet wurden und danach die Enzym- und Pinozytoseaktivität in den Kulturen bestimmt wurde. Es wurden die nachstehenden Ergebnisse erzielt.
Die quantitative Bestimmung der Pinozytoseaktivität bei mononukleären Phagozyten wurde nach der Methode von Davies et al. durchgeführt (Davies, P. Allison, A.C. und Haswell, A.D.; Biochem. Biophys. Res. Com. 52, 627, 1973). Dazu wurde radioaktives, kolloidales Gold (^198Au) mit einer Partikelgröße von 20 nm und einer spezifischen Aktivität von 4-12 mCl/mg Au benutzt. Die Ergebnisse in Tabelle 4 veranschaulichen den Effekt der nach Beispiel 8 erhaltenen Prüfsubstanz auf die Endozytoseleistung. Die Pinozytose von kolloidalem Gold (^19^8Au) durch Maus-Peritonealmakrophagen von mit der erfindungsgemäßen Verbindung behandelten Tieren ist im Vergleich mit den Makrophagen von unbehandelten Tieren signifikant und dosisabhängig erhöht.

[2] = tested on: Candida albicans; assay: Resistance against Candida albicans infection, prophylactic treatment, survival time; type: in vivo, Balb/c-Mäuse; conditions: 2 x 60 mg/kg/Tag intraperitoneal over 4 days, i.v. infection 24 h later with 5 x 10^5 CFU/Maus, control 9,7 Tagen
Experimental: Balb/c-Mäuse wurden über 4 Tage in einer Dosierung von 2 x 60 mg/kg/Tag intraperitoneal mit der Prüfsubstanz (Verbindung nach Ausführungsbeispiel 8) behandelt. 24 Stunden nach der letzten Gabe der Prüfsubstanz werden diese Tiere und die Kontrolltiere, denen physiologische Kochsalzlösung in gleichen Volumina und Zeitabständen verabreicht worden war, mit Candida albicans intravenös infiziert (5 x 10^5 CFU/Maus). Aus der Absterberate nach der Infektion lassen sich entsprechend die mittleren Überlebenszeiten berechnen. Die Tiere der Kontrollgruppe sterben zu 50 % nach 9,7 Tagen, die mit der Prüfsubstanz behandelte Gruppe zeigte eine mittlere Überlebenszeit von 16,1 Tagen. In dem gewählten Applikationsschema mit den entsprechenden Dosierungen (prophylaktische Verabreichung) induziert die Prüfsubstanz eine signifikante Erhöhung der Resistenz der Balb/c-Maus gegen Candida albicans.
Wie in Experiment 3a beschrieben, wurden Balb/c-Mäuse mit den erfindungsgemäßen Verbindungen behandelt.
Wie Tabelle 9 zeigt, steigt die mittlere Überlebenszeit der Mäuse nach C. albicans Infektion, verglichen mit einer unbehandelten Kontrollgruppe, signifikant an.

Which “Pinozytoseleistung von Mausmakrophagen” value ([1]; 1 x 25 mg/kg intraperitoneal) does the source give for `Cc1nc(SSc2nc(C)c(CC(=O)O)s2)sc1CC(=O)O` [Beispiel 8, Bis-(5-Carboxymethyl-4-methyl-thiazol-2-yl)-disulfid] here?
The value was 0,341 " " x 10^3 cpm.

What about the “Pinozytoseleistung von Mausmakrophagen” value ([1]; 1 x 25 mg/kg oral) of the same molecule?
Its value is 0,272 " " x 10^3 cpm.

What about the “Pinozytoseleistung von Mausmakrophagen” value ([1]; 1 x 50 mg/kg intraperitoneal) of the same molecule?
Its value is 0,396 " " x 10^3 cpm.

And the “Pinozytoseleistung von Mausmakrophagen” value ([1]; 1 x 50 mg/kg oral)?
Its value is 0,358 " " x 10^3 cpm.

And the “Pinozytoseleistung von Mausmakrophagen” value ([1]; 1 x 100 mg/kg intraperitoneal)?
The value was 0,462 " " x 10^3 cpm.

And the “Pinozytoseleistung von Mausmakrophagen” value ([1]; 1 x 100 mg/kg oral)?
The value was 0,416 " " x 10^3 cpm.

And the “Pinozytoseleistung von Mausmakrophagen” value ([1]; 1 x 200 mg/kg intraperitoneal)?
Its value is 0,587 " " x 10^3 cpm.

What about the “Pinozytoseleistung von Mausmakrophagen” value ([1]; 1 x 200 mg/kg oral) of the same molecule?
The value was 0,506 " " x 10^3 cpm.

And the “mittlere Überlebenszeit” value [2]?
The value was 16,1 Tagen.
